Columns and labels:
Type in all cases: in vivo
[1] = test system: Echinochloa crus-galli (L.) P. Beauv. var. formosensis Ohwi; experiment: Test for Herbicidal Effect in Flooding Treatment (#2), ECHDG at 2-2.5 leaf stage; conditions: flooding treatment at 2-2.5 leaf stage, dose 0.2 kg/ha, visual observation on day 21
Summary of the method: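 Scoring is a visual 0–5 scale of growth inhibition (0 below 10%, 5 at 90% or more or full withering), taken 21 days after treatment in a glasshouse. Dose was 0.2 kg/ha, applied as acetone/Tween 80 aqueous solution onto flooded soil once seedlings reached the 2–2.5 leaf stage.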

Scirpus juncoides = experiment: Test for Herbicidal Effect in Flooding Treatment (#1), SCIJU; conditions: flooding treatment at seeding, dose 2 kg/ha, visual observation on day 21
Summary of the method: (§1)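 Flooded soil in cups was seeded 24 h after flooding, then treated with compound in acetone diluted with Tween 80-containing water, dropped onto the water surface at 2 kg/ha. After growth in a glasshouse, growth inhibition was scored visually on day 21 on a 0 (<10%) to 5 (≥90% or complete withering) scale.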

[2] = test system: Echinochloa crus-galli (L.) P. Beauv. var. formosensis Ohwi; experiment: Test for Herbicidal Effect in Flooding Treatment (#1), ECHDG; conditions: flooding treatment at seeding, dose 2 kg/ha, visual observation on day 21
Summary of the method: as §1

Monochoria vaginalis = experiment: Test for Herbicidal Effect in Flooding Treatment (#1), MONVA; conditions: flooding treatment at seeding, dose 2 kg/ha, visual observation on day 21
Summary of the method: as §1

Cyperus microiria = experiment: Test for Herbicidal Effect in Flooding Treatment (#1), CYMIC; conditions: flooding treatment at seeding, dose 2 kg/ha, visual observation on day 21
Summary of the method: as §1

Row | Structure (SMILES) | ECHDG (2-2.5L) #2 herbicidal effect (growth inhibition grade) [1] | SCIJU #1 herbicidal effect (growth inhibition grade) (Scirpus juncoides) | ECHDG #1 herbicidal effect (growth inhibition grade) [2] | MONVA #1 herbicidal effect (growth inhibition grade) (Monochoria vaginalis) | CYMIC #1 herbicidal effect (growth inhibition grade) (Cyperus microiria)
1 | O=S(=O)(Cc1cc(Br)ccc1OC(F)F)c1ncc(Cl)s1 [Compound 1C-40] | 5 (Growth inhibition effect is equal to or greater than 90%, or complete withering is achieved) | 5 (Growth inhibition effect is equal to or greater than 90%, or complete withering is achieved) | 5 (Growth inhibition effect is equal to or greater than 90%, or complete withering is achieved) | 5 (Growth inhibition effect is equal to or greater than 90%, or complete withering is achieved) | 5 (Growth inhibition effect is equal to or greater than 90%, or complete withering is achieved)
2 | O=S(=O)(Cc1cc(Br)ccc1OC(F)(F)F)c1ncc(Cl)s1 [Compound 1C-47] | 4 (Growth inhibition effect is equal to or greater than 70%, and less than 90%) | 5 (Growth inhibition effect is equal to or greater than 90%, or complete withering is achieved) | 5 (Growth inhibition effect is equal to or greater than 90%, or complete withering is achieved) | 5 (Growth inhibition effect is equal to or greater than 90%, or complete withering is achieved) | 5 (Growth inhibition effect is equal to or greater than 90%, or complete withering is achieved)
3 | COc1cccc(CS(=O)(=O)c2ncc(Cl)s2)c1 [Compound 1C-65] | 5 (Growth inhibition effect is equal to or greater than 90%, or complete withering is achieved) | 5 (Growth inhibition effect is equal to or greater than 90%, or complete withering is achieved) | 5 (Growth inhibition effect is equal to or greater than 90%, or complete withering is achieved) | 5 (Growth inhibition effect is equal to or greater than 90%, or complete withering is achieved) | 5 (Growth inhibition effect is equal to or greater than 90%, or complete withering is achieved)
4 | COc1cccc(CS(=O)(=O)c2ncc(Cl)s2)c1Cl [Compound 1C-66] | 4 (Growth inhibition effect is equal to or greater than 70%, and less than 90%) | 5 (Growth inhibition effect is equal to or greater than 90%, or complete withering is achieved) | 5 (Growth inhibition effect is equal to or greater than 90%, or complete withering is achieved) | 5 (Growth inhibition effect is equal to or greater than 90%, or complete withering is achieved) | 5 (Growth inhibition effect is equal to or greater than 90%, or complete withering is achieved)
5 | COc1ccc(F)c(CS(=O)(=O)c2ncc(Cl)s2)c1 [Compound 1C-69] | 4 (Growth inhibition effect is equal to or greater than 70%, and less than 90%) | 5 (Growth inhibition effect is equal to or greater than 90%, or complete withering is achieved) | 5 (Growth inhibition effect is equal to or greater than 90%, or complete withering is achieved) | 5 (Growth inhibition effect is equal to or greater than 90%, or complete withering is achieved) | 5 (Growth inhibition effect is equal to or greater than 90%, or complete withering is achieved)

Reference: patent US20200060276A1, “THIAZOLE COMPOUND AND HERBICIDE” (OAT Agrio Co., Ltd., priority 2017, published 2020)
